Molecules are shown by their SMILES.

One assay deals with T1, EGFR (L858R T790M C797S) (Homo sapiens, UniProt P00533, C797S/L858R/T790M).
T1 construct: purchased SignalChem E10-122VG
The assay is described as follows: Biochemical EGFR inhibition assay (Caliper mobility shift), EGFR LRTMCS mutant. The settings on record: inhibitory activity against EGFR LRTMCS mutant; apparent IC50; read-out: Ext Enz LRTMCS. Summed up: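 Caliper mobility shift read-out: product and substrate peptides separated by electrophoresis and quantified. Reactions at 25° C. taken to 10–20% peptide phosphorylation, quenched with 35 mM EDTA. Apparent IC50 from percent activity vs log [compound].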

Assay [1] relates to phosphorylation of EGFR (Tyr1068) in NCI-H1975 cell line that harbors the EGFR L858R T790M mutations. The assay is described as follows: NCI-H1975 pEGFR AlphaLISA assay. The format is cell-based. The settings on record: Homo sapiens, NCI-H1975, inhibition of phosphorylation of mutant EGFR in NCI-H1975 cells; 4-5 hours incubation; read-out: Ext pEGFR H1975. The procedure, abridged: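 Phospho-EGFR Tyr1068 AlphaLISA readout: lysates taken from compound-treated H1975 cells (L858R T790M EGFR) after a 4-5 h exposure at 37 °C. Cells had adhered overnight beforehand. IC50 derived by plotting % pEGFR inhibition against log compound concentration.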

T1 sequence (P00533 25-1210 T790M/C797S/L858R): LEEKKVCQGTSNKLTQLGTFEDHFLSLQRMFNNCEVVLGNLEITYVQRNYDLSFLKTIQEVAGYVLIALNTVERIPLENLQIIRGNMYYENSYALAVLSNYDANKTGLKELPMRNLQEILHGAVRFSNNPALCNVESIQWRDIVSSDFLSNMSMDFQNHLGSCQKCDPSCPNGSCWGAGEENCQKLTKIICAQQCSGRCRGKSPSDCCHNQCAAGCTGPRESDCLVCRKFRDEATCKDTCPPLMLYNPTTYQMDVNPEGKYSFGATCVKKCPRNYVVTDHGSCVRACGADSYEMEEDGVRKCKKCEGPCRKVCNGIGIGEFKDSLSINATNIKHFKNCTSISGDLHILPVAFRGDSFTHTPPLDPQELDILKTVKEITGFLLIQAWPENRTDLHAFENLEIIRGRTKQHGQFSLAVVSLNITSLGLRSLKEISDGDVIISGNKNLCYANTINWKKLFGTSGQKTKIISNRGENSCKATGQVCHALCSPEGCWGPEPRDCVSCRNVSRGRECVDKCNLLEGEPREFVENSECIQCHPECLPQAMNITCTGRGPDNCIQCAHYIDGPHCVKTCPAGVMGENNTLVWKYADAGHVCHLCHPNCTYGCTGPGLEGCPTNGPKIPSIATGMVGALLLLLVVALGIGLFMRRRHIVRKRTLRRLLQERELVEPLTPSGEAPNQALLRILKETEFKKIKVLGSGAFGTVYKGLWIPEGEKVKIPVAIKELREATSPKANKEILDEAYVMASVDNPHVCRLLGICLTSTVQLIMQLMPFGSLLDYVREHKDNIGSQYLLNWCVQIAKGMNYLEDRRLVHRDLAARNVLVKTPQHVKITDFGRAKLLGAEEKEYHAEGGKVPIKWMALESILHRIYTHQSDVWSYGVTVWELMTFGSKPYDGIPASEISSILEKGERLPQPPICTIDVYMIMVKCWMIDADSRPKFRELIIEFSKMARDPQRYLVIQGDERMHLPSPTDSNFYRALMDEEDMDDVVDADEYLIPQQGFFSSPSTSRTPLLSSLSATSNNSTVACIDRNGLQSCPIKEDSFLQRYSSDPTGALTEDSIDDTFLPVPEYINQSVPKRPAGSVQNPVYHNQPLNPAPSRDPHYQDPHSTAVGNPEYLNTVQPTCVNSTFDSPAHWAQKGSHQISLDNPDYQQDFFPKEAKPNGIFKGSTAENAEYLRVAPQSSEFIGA

With `CO[C@@H]1CCN(c2nccc(Nc3cc4c(C(C)C)nnc(N5C[C@H](CS(C)(=O)=O)[C@H]5C)c4cn3)n2)C[C@@H]1F` [Compound 150, N-(2-((3S,4R)-3-fluoro-4-methoxypiperidin-1-yl)pyrimidin-4-yl)-1-isopropyl-4-((2R,3S)-2-methyl-3-(methylsulfonylmethyl)azetidin-1-yl)pyrido[4,3-d]pyridazin-7-amine], the IC50 on EGFR (L858R T790M C797S) was at most 15 nM; in assay [1], 20.1 to 30 nM.

As to `CC(C)c1ccc(N2CC(CS(C)(=O)=O)C2)c2cnc(Nc3ccnc(N4CCC5(CC4)COCCO5)n3)cc12` [Compound 167, N-(2-{1,4-dioxa-9-azaspiro[5,5]undecan-9-yl}pyrimidin-4-yl)-8-[3-(methanesulfonylmethyl)azetidin-1-yl]-5-(propan-2-yl)isoquinolin-3-amine], the results for the IC50 (on EGFR (L858R T790M C797S); in assay [1]) were at most 15 nM and 10.1 to 20 nM, respectively.

Consider `CC(C)c1ccc(N2C[C@H](CS(C)(=O)=O)[C@H]2C)c2cnc(Nc3ccnc(N4CCC(OCCN)CC4)n3)cc12` [Compound 168, N-{2-[4-(2-aminoethoxy)piperidin-1-yl]pyrimidin-4-yl}-8-[(2R,3S)-3-(methanesulfonylmethyl)-2-methylazetidin-1-yl]-5-(propan-2-yl)isoquinolin-3-amine], for which the IC50 is at most 15 nM at EGFR (L858R T790M C797S) and 10.1 to 20 nM in assay [1].

With `COC1(CN)CCN(c2nccc(Nc3cc4c(C(C)C)ccc(N5C[C@H](CS(C)(=O)=O)[C@H]5C)c4cn3)n2)CC1` [Compound 169, N-{2-[4-(aminomethyl)-4-methoxypiperidin-1-yl]pyrimidin-4-yl}-8-[(2R,3S)-3-(methanesulfonylmethyl)-2-methylazetidin-1-yl]-5-(propan-2-yl)isoquinolin-3-amine], the IC50 at EGFR (L858R T790M C797S) lay within 15.1 to 20 nM; in assay [1], 30.1 to 50 nM.

For `CC(C)c1ccc(N2CC(CS(=O)(=O)C3CC3)C2)c2cnc(Nc3ccnc(N4CC[C@@H](O)[C@@](C)(F)C4)n3)cc12` [Compound 170, (3S,4R)-1-{4-[(8-{3-[(cyclopropanesulfonyl)methyl]azetidin-1-yl}-5-(propan-2-yl)isoquinolin-3-yl)amino]pyrimidin-2-yl}-3-fluoro-3-methylpiperidin-4-ol], the figures for the IC50 (at EGFR (L858R T790M C797S); in assay [1]) were at most 15 nM and at most 10 nM, respectively.

As to `CC(C)c1ccc(N2C[C@H](CS(C)(=O)=O)[C@H]2C)c2cnc(Nc3ccnc(N4CCC(OCCO)CC4)n3)cc12` [Compound 171, 2-({1-[4-({8-[(2R,3S)-3-(methanesulfonylmethyl)-2-methylazetidin-1-yl]-5-(propan-2-yl)isoquinolin-3-yl}amino)pyrimidin-2-yl]piperidin-4-yl}oxy)ethan-1-ol], the results for the IC50 (on EGFR (L858R T790M C797S); in assay [1]) were at most 15 nM and at most 10 nM, respectively.

As for `COC1(CO)CCN(c2nccc(Nc3cc4c(C(C)C)ccc(N5C[C@H](CS(C)(=O)=O)[C@H]5C)c4cn3)n2)CC1` [Compound 175, {1-[4-({8-[(2R,3S)-3-(methanesulfonylmethyl)-2-methylazetidin-1-yl]-5-(propan-2-yl)isoquinolin-3-yl}amino)pyrimidin-2-yl]-4-methoxypiperidin-4-yl}methanol], the IC50 on EGFR (L858R T790M C797S) was at most 15 nM; in assay [1], at most 10 nM.

For `CC(C)c1ccc(N2CC(CS(C)(=O)=O)C2)c2cnc(Nc3ccnc(N4CC[C@@H](OCCO)[C@@H](F)C4)n3)cc12` [Compound 205, 2-{[(3S,4R)-3-fluoro-1-[4-({8-[3-(methanesulfonylmethyl)azetidin-1-yl]-5-(propan-2-yl)isoquinolin-3-yl}amino)pyrimidin-2-yl]piperidin-4-yl]oxy}ethan-1-ol], the results for the IC50 (at EGFR (L858R T790M C797S); in assay [1]) were at most 15 nM and at most 10 nM, respectively.

Take `CCS(=O)(=O)C[C@H]1CN(c2nnc(C(C)C)c3cc(Nc4ccnc(N5CC[C@@H](OC)[C@@H](F)C5)n4)ncc23)[C@@H]1C` [Compound 206, N-{4-[(2R,3S)-3-[(ethanesulfonyl)methyl]-2-methylazetidin-1-yl]-1-(propan-2-yl)pyrido[3,4-d]pyridazin-7-yl}-2-[(3S,4R)-3-fluoro-4-methoxypiperidin-1-yl]pyrimidin-4-amine]: the IC50 on EGFR (L858R T790M C797S) is at most 15 nM; in assay [1], at most 10 nM.

As to `CCS(=O)(=O)C[C@H]1CN(c2nnc(C(C)C)c3cc(Nc4ccnc(N5CC[C@H](OC)[C@H](F)C5)n4)ncc23)[C@@H]1C` [Compound 207, N-{4-[(2R,3S)-3-[(ethanesulfonyl)methyl]-2-methylazetidin-1-yl]-1-(propan-2-yl)pyrido[3,4-d]pyridazin-7-yl}-2-[(3R,4S)-3-fluoro-4-methoxypiperidin-1-yl]pyrimidin-4-amine], the IC50 at EGFR (L858R T790M C797S) was at most 15 nM; in assay [1], 10.1 to 20 nM.

As to `COC1(CCN)CCN(c2nccc(Nc3cc4c(C(C)C)ccc(N5C[C@H](CS(C)(=O)=O)[C@H]5C)c4cn3)n2)CC1` [Compound 221, N-{2-[4-(2-aminoethyl)-4-methoxypiperidin-1-yl]pyrimidin-4-yl}-8-[(2R,3S)-3-(methanesulfonylmethyl)-2-methylazetidin-1-yl]-5-(propan-2-yl)isoquinolin-3-amine], the IC50 on EGFR (L858R T790M C797S) is at most 15 nM; in assay [1], 30.1 to 50 nM.

Take `CC(C)c1ncc(N2C[C@H](CS(C)(=O)=O)[C@H]2C)c2cnc(Nc3ccnc(N4CC[C@H](OC5CC5)[C@H](F)C4)n3)cc12` [Compound 224, N-{2-[(3R,4S)-4-cyclopropoxy-3-fluoropiperidin-1-yl]pyrimidin-4-yl}-8-[(2R,3S)-3-(methanesulfonylmethyl)-2-methylazetidin-1-yl]-5-(propan-2-yl)-2,6-naphthyridin-3-amine]: the IC50 was 15.1 to 20 nM at EGFR (L858R T790M C797S) and at most 10 nM in assay [1].

With `CC(C)c1ncc(N2C[C@H](CS(C)(=O)=O)[C@H]2C)c2cnc(Nc3ccnc(N4CC[C@@H](OC5CC5)[C@@H](F)C4)n3)cc12` [Compound 225], the IC50 on EGFR (L858R T790M C797S) was at most 15 nM; in assay [1], at most 10 nM.

As for `CC(C)c1ccc(N2C[C@H](CS(C)(=O)=O)[C@H]2C)c2cnc(Nc3ccnc(N4CC[C@H](OCCO)[C@H](F)C4)n3)cc12` [Compound 228, 2-((3R,4S)-3-fluoro-1-(4-(5-isopropyl-8-((2R,3S)-2-methyl-3-(methylsulfonylmethyl)azetidin-1-yl)isoquinolin-3-ylamino)pyrimidin-2-yl)piperidin-4-yloxy)ethanol], the IC50 is at most 15 nM on EGFR (L858R T790M C797S) and at most 10 nM in assay [1].

Take `CC(C)c1ccc(N2C[C@H](CS(C)(=O)=O)[C@H]2C)c2cnc(Nc3ccnc(N4CC[C@@H](OCCO)[C@@H](F)C4)n3)cc12` [Compound 229, 2-((3S,4R)-3-fluoro-1-(4-(5-isopropyl-8-((2R,3S)-2-methyl-3-(methylsulfonylmethyl)azetidin-1-yl)isoquinolin-3-ylamino)pyrimidin-2-yl)piperidin-4-yloxy)ethanol]: the results for the IC50 (on EGFR (L858R T790M C797S); in assay [1]) were at most 15 nM and at most 10 nM, respectively.

`CNCCO[C@@H]1CCN(c2nccc(Nc3cc4c(C(C)C)ccc(N5C[C@H](CS(C)(=O)=O)[C@H]5C)c4cn3)n2)C[C@@H]1F` [Compound 240, N-{2-[(3S,4R)-3-fluoro-4-[2-(methylamino)ethoxy]piperidin-1-yl]pyrimidin-4-yl}-8-[(2R,3S)-3-(methanesulfonylmethyl)-2-methylazetidin-1-yl]-5-(propan-2-yl)isoquinolin-3-amine]: the IC50 at EGFR (L858R T790M C797S) was at most 15 nM; in assay [1], at most 10 nM.

For the compound `CC(C)c1ccc(N2C[C@H](CS(C)(=O)=O)[C@H]2C)c2cnc(Nc3ccnc(N4CC[C@@H](OCCN)[C@@](C)(F)C4)n3)cc12` [Compound 241, N-{2-[(3S,4R)-4-(2-aminoethoxy)-3-fluoro-3-methylpiperidin-1-yl]pyrimidin-4-yl}-8-[(2R,3S)-3-(methanesulfonylmethyl)-2-methylazetidin-1-yl]-5-(propan-2-yl)isoquinolin-3-amine], the figures for the IC50 (at EGFR (L858R T790M C797S); in assay [1]) were at most 15 nM and 10.1 to 20 nM, respectively.

Turning to `CCS(=O)(=O)C[C@H]1CN(c2ccc(C(C)C)c3cc(Nc4ccnc(N5CC[C@H](OCCO)[C@H](F)C5)n4)ncc23)[C@@H]1C` [Compound 243, 2-((3R,4S)-1-(4-(8-((2R,3S)-3-(ethylsulfonylmethyl)-2-methylazetidin-1-yl)-5-isopropylisoquinolin-3-ylamino)pyrimidin-2-yl)-3-fluoropiperidin-4-yloxy)ethanol], the IC50 at EGFR (L858R T790M C797S) was at most 15 nM; in assay [1] it was at most 10 nM.

For `CCS(=O)(=O)C[C@H]1CN(c2ccc(C(C)C)c3cc(Nc4ccnc(N5CC[C@@H](OCCO)[C@@H](F)C5)n4)ncc23)[C@@H]1C` [Compound 244, 2-((3S,4R)-1-(4-(8-((2R,3S)-3-(ethylsulfonylmethyl)-2-methylazetidin-1-yl)-5-isopropylisoquinolin-3-ylamino)pyrimidin-2-yl)-3-fluoropiperidin-4-yloxy)ethanol], the figures for the IC50 (at EGFR (L858R T790M C797S); in assay [1]) were at most 15 nM and at most 10 nM, respectively.

`CCS(=O)(=O)C[C@H]1CN(c2ncc(C(C)C)c3cc(Nc4ccnc(N5CC[C@@H](OCCO)[C@@H](F)C5)n4)ncc23)[C@@H]1C` [Compound 249, 2-{[(3S,4R)-1-[4-({8-[(2R,3S)-3-[(ethanesulfonyl)methyl]-2-methylazetidin-1-yl]-5-(propan-2-yl)-2,7-naphthyridin-3-yl}amino)pyrimidin-2-yl]-3-fluoropiperidin-4-yl]oxy}ethan-1-ol]: the results for the IC50 (on EGFR (L858R T790M C797S); in assay [1]) were at most 15 nM and at most 10 nM, respectively.

(Values after US12172983B2, “EGFR inhibitors” (Blueprint Medicines Corporation, priority 2019, dated 2024).)
